Laboratory results published in patent US20260273007A1, “FEED ADDITIVE FOR IMPROVING PERFORMANCE OF FARMING ANIMALS” (Nutreco IP Assets B.V., priority 2023, published 2026).

Legend:
E. maxima = E. maxima infection of chickens: performance and fecal oocyst shedding (Example 8); format: in vivo; conditions: E. maxima-infected chickens, 90 mg/kg feed of monensin
Description: Newly hatched chickens from Longnecker's hatchery, Elizabethtown, PA were housed in a Petersime brooder units and provided with feed and water ad libitum. All chickens were weighed and allocated to a cage. Per treatment, 60 chickens (5 birds/cage=12 replication) were used. Initial body weight was the same among treatments. For E. maxima infection freshly propagated E. maxima (ARS strain) were used to infect the birds. On d 14 after hatch, the birds were infected with 10,000 E. maxima oocysts through oral gavage. The experimental treatments were the following: [1]=Negative control (NC), non infected and untreated chicken; [2]=Positive control (PC)=[1]+infection; […] [4]=[2]+55 ppm of dried Glycyrrhiza glabra leaves; [5]=[2]+160 ppm of dried Glycyrrhiza glabra leaves. Monensin is the current standard used to control coccidiosis. […] Oocyst shedding: Faeces from each group was collected separately from 6-8 days post infection (dpi) for coccidiosis. To count coccidia oocysts, various dilutions were made initially to determine the optimum dilutions for enumeration of oocysts for each sample. Oocysts were counted microscopically using a McMaster counting chamber using a sodium chloride flotation method. The total number of oocysts shed per chicken were calculated using the formula: total oocysts/bird=(oocyst count×dilution factor×fecal sample volume/counting chamber volume)/number of birds per cage.

[1] = test system: Alpha mouse liver 12 cells (AML12); format: cell-based

Row | Compound | ADFI d 15 to 19 (0 to 4 dpi) (E. maxima) [g] | ADFI d 15 to 21 (0 to 6 dpi) (E. maxima) [g] | ADFI d 15 to 23 (0 to 8 dpi) (E. maxima) [g] | ADG d 15 to 19 (0 to 4 dpi) (E. maxima) [g] | ADG d 15 to 21 (0 to 6 dpi) (E. maxima) [g] | ADG d 15 to 23 (0 to 8 dpi) (E. maxima) [g] | BW d 19 (4 dpi) (E. maxima) [g] | BW d 21 (6 dpi) (E. maxima) | BW d 23 (8 dpi) (E. maxima) | FCR d 15 to 19 (0 to 4 dpi) (E. maxima) | FCR d 15 to 21 (0 to 6 dpi) (E. maxima) | FCR d 15 to 23 (0 to 8 dpi) (E. maxima) | Lesion score (E. maxima) | Number of oocysts (fecal oocyst shedding, FIG. 2) (E. maxima; faeces 6-8 dpi) | Cell viability (%) [1] [%]
1 | CC[C@@]1([C@@H]2O[C@@H]([C@H]3O[C@@](O)(CO)[C@H](C)C[C@@H]3C)C[C@@H]2C)CC[C@H]([C@]2(C)CC[C@]3(C[C@H](O)[C@@H](C)[C@@H]([C@@H](C)[C@@H](OC)[C@H](C)C(=O)O)O3)O2)O1 [MO, monensin] | 90 | 93.5 | 94.3 | 76.3 | 72.9 | 79.3 | 890 | 1,023 g | 1,220 g | 1.191 | 1.31 | 1.21 | reduced | reduced | –
2 | Aflatoxin B1 | – | – | – | – | – | – | – | – | – | – | – | – | – | – | 51.8
